Where “and” joins values, the source holds several entries; their conditions need not be identical. Equal entries are not always repeated. Toxic doses and inconclusive results are not listed.
Test system: L1210 leukemia ip in BDF1 mice, survival T/C
Test: NCI In Vivo Anticancer Drug Screen. Data for tumor model L1210 Leukemia (intraperitoneal) in B6D2F1 (BDF1) mice
Details: endpoint: mean survival time, higher = longer survival
Method in brief: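 Read-out is survival time, reported as the treated-group measurement over the vehicle-control measurement.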

[1] = dose: 50.0 mg/kg/injection, schedule: Q01DX001 (ip), vehicle: carboxymethylcellulose (CMC)
[2] = dose: 100.0 mg/kg/injection, schedule: Q01DX001 (ip), vehicle: carboxymethylcellulose (CMC)
[3] = dose: 200.0 mg/kg/injection, schedule: Q01DX001 (ip), vehicle: carboxymethylcellulose (CMC)
[4] = dose: 400.0 mg/kg/injection, schedule: Q01DX001 (ip), vehicle: carboxymethylcellulose (CMC)
[5] = dose: 100.0 mg/kg/injection, schedule: Q04DX003 (ip), vehicle: saline with Tween-80
[6] = dose: 200.0 mg/kg/injection, schedule: Q04DX003 (ip), vehicle: saline with Tween-80
[7] = dose: 50.0 mg/kg/injection, schedule: Q01DX001 (ip), vehicle: saline
[8] = dose: 100.0 mg/kg/injection, schedule: Q01DX001 (ip), vehicle: saline
[9] = dose: 200.0 mg/kg/injection, schedule: Q01DX001 (ip), vehicle: saline
[10] = dose: 400.0 mg/kg/injection, schedule: Q01DX001 (ip), vehicle: saline
[11] = dose: 100.0 mg/kg/injection, schedule: Q01DX009 (ip), vehicle: saline with Tween-80
[12] = dose: 100.0 mg/kg/injection, schedule: Q01DX009 (ip), vehicle: saline
[13] = dose: 100.0 mg/kg/injection, schedule: Q04DX003 (ip), vehicle: saline
[14] = dose: 100.0 mg/kg/injection, schedule: Q04DX002 (ip), vehicle: Klucel (hydroxypropylcellulose) (HPC)
[15] = dose: 100.0 mg/kg/injection, schedule: Q01DX001 (ip), vehicle: Klucel (hydroxypropylcellulose) (HPC)
[16] = dose: 200.0 mg/kg/injection, schedule: Q01DX001 (ip), vehicle: Klucel (hydroxypropylcellulose) (HPC)
[17] = dose: 100.0 mg/kg/injection, schedule: Q01DX001 (ip), vehicle: saline with Tween-80
[18] = dose: 200.0 mg/kg/injection, schedule: Q01DX001 (ip), vehicle: saline with Tween-80
[19] = dose: 400.0 mg/kg/injection, schedule: Q01DX001 (ip), vehicle: saline with Tween-80
[20] = dose: 200.0 mg/kg/injection, schedule: Q01DX009 (ip), vehicle: saline with Tween-80
[21] = dose: 400.0 mg/kg/injection, schedule: Q01DX009 (ip), vehicle: saline with Tween-80

CC(=O)Nc1ncc(Oc2ccc(Cl)cc2Cl)c(=O)[nH]1
T/C [1]: 102 % of control | T/C [2]: 119 % of control | T/C [3]: 96 % of control | T/C [4]: 102 % of control

CCOC(=O)C(=N\Nc1ccc(C)c(C)c1)/C(C)=N\NC(N)=S
T/C (dose: 75.0 mg/kg/injection, schedule: Q01DX001 (ip), vehicle: saline): 87 % of control | T/C (dose: 150.0 mg/kg/injection, schedule: Q01DX001 (ip), vehicle: saline): 89 % of control

CC1CN=C(c2cccc(NC(=O)NCCCCNC(=O)Nc3cccc(C4=NCC(C)N4)c3)c2)N1 (stereo unspecified)
T/C (dose: 6.5 mg/kg/injection, schedule: Q01DX Z (ip), vehicle: carboxymethylcellulose (CMC)): 94 % of control

Cc1cc(Cl)ccc1OC(=O)Nc1cccc(Cl)c1Cl
T/C (dose: 100.0 mg/kg/injection, schedule: Q01DX009 (ip), vehicle: Klucel (hydroxypropylcellulose) (HPC)): 102 % of control | T/C (dose: 200.0 mg/kg/injection, schedule: Q01DX009 (ip), vehicle: Klucel (hydroxypropylcellulose) (HPC)): 89 % of control | T/C (dose: 400.0 mg/kg/injection, schedule: Q01DX009 (ip), vehicle: Klucel (hydroxypropylcellulose) (HPC)): 94 % of control

Nc1ccc(NC(=O)C(=O)O)cc1
T/C [5]: 97 % of control | T/C [6]: 88 % of control

CCOC(=O)Nc1nccs1
T/C [5]: 105 % of control | T/C [6]: 96 % of control

O=C(NC(Cc1ccccc1)C(=O)NCCCCCCCCCCNC(=O)C(Cc1ccccc1)NC(=O)OCc1ccccc1)OCc1ccccc1 (stereo unspecified)
T/C [7]: 92 % of control | T/C [8]: 98 % of control | T/C [9]: 110 % of control | T/C [10]: 104 % of control

NC(=O)C[CH2][Sn]([c]1ccccc1)([c]1ccccc1)[c]1ccccc1
T/C (dose: 50.0 mg/kg/injection, schedule: Q01DX009 (ip), vehicle: saline with Tween-80): 101 % of control | T/C [11]: 112 % of control

Cc1cc(C)c(NS(=O)(=O)c2ccccc2)c(C)c1Br
T/C (dose: 75.0 mg/kg/injection, schedule: Q04DX003 (ip), vehicle: Klucel (hydroxypropylcellulose) (HPC)): 95 % of control | T/C (dose: 150.0 mg/kg/injection, schedule: Q04DX003 (ip), vehicle: Klucel (hydroxypropylcellulose) (HPC)): 94 % of control | T/C (dose: 300.0 mg/kg/injection, schedule: Q04DX003 (ip), vehicle: Klucel (hydroxypropylcellulose) (HPC)): 94 % of control

NC(CSC(c1ccccc1)(c1ccccc1)c1ccc(C(=O)O)cc1)C(=O)O.[Ga] (stereo unspecified)
T/C (dose: 100.0 mg/kg/injection, schedule: Q01DX001 (ip), vehicle: acetone): 96 % of control | T/C [12]: 103 % of control | T/C [13]: 106 % of control | T/C (dose: 200.0 mg/kg/injection, schedule: Q01DX001 (ip), vehicle: acetone): 98 % of control | T/C (dose: 200.0 mg/kg/injection, schedule: Q01DX009 (ip), vehicle: saline): 90 % of control | T/C (dose: 200.0 mg/kg/injection, schedule: Q04DX003 (ip), vehicle: saline): 97 % of control | T/C (dose: 400.0 mg/kg/injection, schedule: Q01DX001 (ip), vehicle: acetone): 112 % of control | T/C (dose: 400.0 mg/kg/injection, schedule: Q01DX009 (ip), vehicle: saline): 98 % of control | T/C (dose: 400.0 mg/kg/injection, schedule: Q04DX003 (ip), vehicle: saline): 100 % of control

N#Cc1nccc2ccccc12
T/C [14]: 106 % of control | T/C (dose: 200.0 mg/kg/injection, schedule: Q04DX002 (ip), vehicle: Klucel (hydroxypropylcellulose) (HPC)): 103 % of control | T/C (dose: 400.0 mg/kg/injection, schedule: Q04DX002 (ip), vehicle: Klucel (hydroxypropylcellulose) (HPC)): 100 % of control

COc1cc(C)ccc1C1OC(=O)c2c1ccc(OC)c2OC (stereo unspecified)
T/C [8]: 97 % of control | T/C [9]: 101 % of control | T/C [10]: 92 % of control

O=C(OCC1OC(n2cnc3c(=S)nc[nH]c32)C(OC(=O)c2ccc(Cl)cc2)C1OC(=O)c1ccc(Cl)cc1)c1ccc(Cl)cc1 (stereo unspecified)
T/C [8]: 104 % of control | T/C [12]: 122 % of control | T/C [9]: 101 % of control | T/C [10]: 113 % of control | T/C (dose: 800.0 mg/kg/injection, schedule: Q01DX009 (ip), vehicle: saline): 166 % of control

CN1CCC2(CC1)C(=O)N(c1ccccc1)C(=O)C2c1ccccc1 (stereo unspecified)
T/C [15]: 102 % of control | T/C [16]: 98 % of control

CCCCC[CH2][Sn](=[O])[CH2]CCCCC
T/C [17]: 105 % of control | T/C [18]: 100 % of control | T/C [19]: 103 % of control

CNNC(=O)c1cccnc1
T/C (dose: 25.0 mg/kg/injection, schedule: Q01DX001 (ip), vehicle: saline): 95 % of control | T/C (dose: 25.0 mg/kg/injection, schedule: Q01DX009 (ip), vehicle: saline): 95 % of control and 98 % of control | T/C (dose: 25.0 mg/kg/injection, schedule: Q04DX003 (ip), vehicle: saline): 105 % of control | T/C [7]: 100 % of control | T/C (dose: 50.0 mg/kg/injection, schedule: Q01DX009 (ip), vehicle: saline): 95 % of control and 100 % of control | T/C (dose: 50.0 mg/kg/injection, schedule: Q04DX003 (ip), vehicle: saline): 104 % of control | T/C [8]: 102 % of control | T/C [12]: 95 % of control and 98 % of control | T/C [13]: 98 % of control

CCCNC(C)(C)C(SS)c1ccc(Cl)cc1 (stereo unspecified)
T/C (dose: 100.0 mg/kg/injection, schedule: Q01DX009 (ip), vehicle: saline sonified): 97 % of control | T/C (dose: 100.0 mg/kg/injection, schedule: Q04DX003 (ip), vehicle: saline sonified): 106 % of control | T/C (dose: 200.0 mg/kg/injection, schedule: Q01DX009 (ip), vehicle: saline sonified): 107 % of control | T/C (dose: 200.0 mg/kg/injection, schedule: Q04DX003 (ip), vehicle: saline sonified): 95 % of control | T/C (dose: 400.0 mg/kg/injection, schedule: Q01DX009 (ip), vehicle: saline sonified): 96 % of control | T/C (dose: 400.0 mg/kg/injection, schedule: Q04DX003 (ip), vehicle: saline sonified): 95 % of control

Nc1ccc(Cc2ccc(N)cc2[N+](=O)[O-])c([N+](=O)[O-])c1
T/C [2]: 98 % of control | T/C [3]: 105 % of control | T/C [4]: 100 % of control

O=C(Nc1cccc(F)c1)OCCOc1ccccc1
T/C (dose: 100.0 mg/kg/injection, schedule: Q01DX009 (ip), vehicle: gum acacia): 93 % of control | T/C (dose: 200.0 mg/kg/injection, schedule: Q01DX009 (ip), vehicle: gum acacia): 102 % of control | T/C (dose: 400.0 mg/kg/injection, schedule: Q01DX009 (ip), vehicle: gum acacia): 96 % of control

COc1ccccc1-c1c(C(=O)O)cccc1[N+](=O)[O-]
T/C [11]: 98 % of control | T/C [20]: 106 % of control | T/C [21]: 101 % of control

CCOC(=O)C(C)C(C)(O)c1ccccc1 (stereo unspecified)
T/C [11]: 95 % of control | T/C [20]: 109 % of control | T/C [21]: 96 % of control

N#CC1(Cc2ccc(OCc3ccccc3)c(OCc3ccccc3)c2)c2ccccc2C=CN1C(=O)c1ccccc1 (stereo unspecified)
T/C (dose: 25.0 mg/kg/injection, schedule: Q04DX003 (ip), vehicle: saline with Tween-80): 100 % of control | T/C (dose: 50.0 mg/kg/injection, schedule: Q04DX003 (ip), vehicle: saline with Tween-80): 91 % of control | T/C [5]: 89 % of control

Cc1ccc(S(=O)(=O)NNS(=O)(=O)c2ccc(C)cc2)cc1
T/C [15]: 109 % of control | T/C [16]: 109 % of control

CC(CO)(CO)N=Cc1cccc([N+](=O)[O-])c1
T/C [1]: 103 % of control | T/C [2]: 103 % of control | T/C [3]: 103 % of control | T/C [4]: 97 % of control

CCCCCCP(=O)(CCCC)CCCC
T/C (dose: 25.0 mg/kg/injection, schedule: Q04DX002 (ip), vehicle: Klucel (hydroxypropylcellulose) (HPC)): 94 % of control | T/C (dose: 50.0 mg/kg/injection, schedule: Q04DX002 (ip), vehicle: Klucel (hydroxypropylcellulose) (HPC)): 109 % of control | T/C [14]: 103 % of control and 109 % of control

COc1cc2ccnc(/C=N\NC(N)=S)c2cc1OC
T/C [7]: 93 % of control | T/C [8]: 98 % of control | T/C [9]: 93 % of control

CCCCOc1ccc(NC(=O)N(C)C)cn1
T/C [5]: 94 % of control | T/C [6]: 96 % of control | T/C (dose: 400.0 mg/kg/injection, schedule: Q04DX003 (ip), vehicle: saline with Tween-80): 87 % of control

O=C(NCCCl)NC(Cc1ccccc1)C(=O)O (stereo unspecified)
T/C [17]: 94 % of control | T/C [18]: 94 % of control | T/C [19]: 91 % of control

Source: PubChem BioAssay AID248 (DTP/NCI, 2004)
